This is an account of results in patent US7371766B2, “Curcumin analogs with anti-tumor and anti-angiogenic properties” (Emory University, priority 1999, dated 2008).

One series deals with SK-MEL-28. The conditions noted are these: 48 hours; for GI50: read-out: Median Growth Inhibitory Concentration (GI50), SK-MEL-28, Melanoma.
Series [1] relates to Tissue Factor (TF) production by human melanoma cell line RPMI-7951. Kind of series: TF ELISA, RPMI-7951. In kind it is cell-based. As for the experimental part: (§1) IMUBIND Tissue Factor ELISA Kit (American Diagnostica Inc, Greenwich, Conn.) was used to determine TF concentration in each sample. The ELISA was carried out according to manufacturer's procedure.
The test system of series [2] is Tissue Factor (TF) production by human breast cancer cell line MDA-MB-231. Briefly: TF ELISA, MDA-MB-231. The series is classed as cell-based. As for the experimental part: as §1
Series [3] deals with Vascular Endothelial Growth Factor (VEGF) production by human prostate cancer cell line DU-145. Briefly: VEGF ELISA, DU-145. In kind it is cell-based. To be noted: for VEGF (% of DMSO): DMSO = 100%.
The subject of series [4] is Vascular Endothelial Growth Factor (VEGF) production by human prostate cancer cell line PC-3. Briefly: VEGF ELISA, PC-3. The series is classed as cell-based. To be noted: for VEGF (% of DMSO): DMSO = 100%.
In series [5] the test system is Tissue Factor (TF) production by human prostate cancer cell line DU-145. Briefly: TF ELISA, DU-145. The conditions noted are these: 20 μM; for TF (% of DMSO): DMSO = 100%; for TF: mean of triplicate and S.D., DMSO 7699 ± 406. In kind it is cell-based. As to the method:
(§2) Cells were treated with 1% Triton X-100 in PBS and left overnight at 4° C. overnight to solubilize TF. […] IMUBIND Tissue Factor ELISA Kit (American Diagnostica Inc, Greenwich, Conn.) was used to determine TF concentration in each sample. The ELISA was carried out according to manufacturer's procedure.

Series [6] relates to Tissue Factor (TF) production by human prostate cancer cell line PC-3. Kind of series: TF ELISA, PC-3. To be noted: 20 μM; for TF (% of DMSO): DMSO = 100%; for TF: mean of triplicate and S.D., DMSO 203 ± 6. The series is classed as cell-based. As for the experimental part:
as §2

The subject of a further series is RPMI 7951. Briefly: Emory Laboratory Cell Screen, Neutral Red, RPMI 7951. The series is classed as cell-based, human. The conditions noted are these: Homo sapiens, RPMI 7951, Melanoma, 72 hours, read-out: Median Growth Inhibitory Concentration (GI50). As to the method: (§3) Human tumor and endothelial cell lines were treated for 72 hours with compounds at a minimum of four concentrations between 0.1 μM-40 μM. Neutral Red assay was used to calculate cell viability.

The subject of series [7] is Human tumor and endothelial cell lines. Kind of series: Emory Laboratory Cell Screen, mean over cell lines. In kind it is cell-based. The conditions noted are these: Homo sapiens, Endothelial cell; Mean over the Emory cell lines; 72 hours; read-out: Median Growth Inhibitory Concentration (GI50), Mean. As to the method:
as §3

Another series has as its system MDA-MB-231. Briefly: Emory Laboratory Cell Screen, Neutral Red, MDA-MB-231. In kind it is cell-based, human. To be noted: Homo sapiens, MDA-MB-231, Breast Cancer, 72 hours, read-out: Median Growth Inhibitory Concentration (GI50). As to the method: as §3
Another series deals with MDA-MB-435. Kind of series: Emory Laboratory Cell Screen, Neutral Red, MDA-MB-435. The conditions noted are these: Homo sapiens, MDA-MB-435, Breast Cancer, 72 hours, read-out: Median Growth Inhibitory Concentration (GI50). In kind it is cell-based, human. As for the experimental part: as §3
In a further series the test system is HUVECS. Briefly: Emory Laboratory Cell Screen, Neutral Red, HUVECS. The series is classed as cell-based, human. The conditions noted are these: Homo sapiens, HUVEC, 72 hours, read-out: Median Growth Inhibitory Concentration (GI50). As to the method: as §3
[8] abbreviates: Table 5, 5 μM, DMSO control 7054.
Setting [9] is: Table 5, 20 μM, DMSO control 7054.
The mark [10] stands for this setting: 20 μM, mean of triplicate and S.D., DMSO 18760 ± 2633.
Setting [11] is: Table 4, 20 μM, mean of triplicate and S.D.
The mark [12] stands for this setting: 20 μM, mean of triplicate and S.D., DMSO 2103 ± 100.

For “3,5-Bis(2-hydroxybenzylidene)-sulfone [EF11]”, in the series on SK-MEL-28, the GI50 came out at 42.5 µM.

As for `O=C1C(=Cc2ccccc2O)COCC1=Cc1ccccc1O` [EF25, 3,5-Bis(2-hyrdoxybenzylidene)tetrahydro4-H-pyran4-one], in the series with SK-MEL-28, the GI50 worked out at 2.4 µM. Moreover, in the series on SK-MEL-28 (read-out: Median Lethal Concentration (LC50), Melanoma, SK-MEL-28, SRB assay), the CC50 came out at 6.6 µM.

Turning to `C(=C\c1ccccc1)/S/C=C/c1ccccc1` [EF15], the TF in series [1] (5 μM, DMSO = 100) stood at 106%; in series [1] (20 μM, DMSO = 100) it was 109%; in [1] (setting [8]), 7506 pg/mL; in series [1] (setting [9]) it was 7663 pg/mL; in [2] (20 μM, DMSO = 100) it was 101%; in [2] (20 μM, DMSO control 45753), 46394 pg/mL. The “TF ELISA” value in [1] (5 μM, DMSO control 7054) is reported as 7506 pg/ml/well; in series [1] (20 μM, DMSO control 7054) it was 7663 pg/ml/well. Also, in the series with SK-MEL-28, the GI50 worked out at 83.7 µM.

`N.N.[Cl][Pt][Cl]` [Cisplatin, reference compound]: in the series with SK-MEL-28, the GI50 was 0.8 µM.

As for `O=C1C(=Cc2ccccc2O)CCCC1=Cc1ccccc1O` [EF4, 2,6Bis(2-hydroxybenzylidene)cyclohexanone], the “VEGF (% of DMSO)” value was “(55%)” in series [3] (20 μM) and “(2%)” in [4] (20 μM). The VEGF in series [3] (setting [10]) is 10274 ± 4467 pg/mL; in [3] (Table 4, 20 μM, DMSO = 100), 55%; in series [3] (setting [11]) it was 10274 ± 4467 pg/mL; in [4] (setting [12]), 48 ± 83 pg/mL; in [4] (Table 4, 20 μM, DMSO = 100), 2%; in [4] (setting [11]), 48 ± 83 pg/mL. Besides, the “TF (% of DMSO)” value in [5] is “(67%)”; in [6], “(16%)”. Besides, the figures for the TF in series [5] and in [6] were 5180 ± 420 pg/mL and 33 ± 7 pg/mL, respectively. Further, the GI50 (with RPMI 7951; in series [7]) was 3.6 µM each time.

In the case of `COc1cc(/C=C/C(=O)CC(=O)/C=C/c2ccc(O)c(OC)c2)ccc1O` [Curcumin], the TF in series [1] (5 μM, DMSO = 100) came out at 126%; in series [1] (20 μM, DMSO = 100), 15%; in series [1] (setting [8]), 8871 pg/mL; in [1] (setting [9]), 1026 pg/mL; in series [5], 7134 ± 301 pg/mL; in series [6], 138 ± 10 pg/mL. For the same compound, the TF in series [2] (5 μM, DMSO = 100) came out at 100%; in series [2] (5 μM, DMSO control 45753), 45814 pg/mL; in [2] (10 μM, DMSO = 100), 98%; in series [2] (10 μM, DMSO control 45753), 44727 pg/mL. Besides, the “TF ELISA” value is 7974 pg/ml/well in [1] (5 μM, DMSO control 7054) and 1026 pg/ml/well in series [1] (20 μM, DMSO control 7054). Further, the “VEGF (% of DMSO)” value in [3] (20 μM) is recorded as “(96%)”; in series [4] (20 μM), “(99%)”. Further, the VEGF in series [3] (setting [10]) was 17957 ± 1910 pg/mL; in series [3] (Table 4, 20 μM, DMSO = 100), 96%; in [3] (setting [11]), 17957 ± 1910 pg/mL; in [4] (setting [12]), 2088 ± 103 pg/mL; in [4] (Table 4, 20 μM, DMSO = 100), 99%; in series [4] (setting [11]) it was 2088 ± 103 pg/mL. The “TF (% of DMSO)” value in [5] is recorded as “(93%)”; in series [6], “(68%)”. Further, the GI50 with RPMI 7951 was determined as 6.3 µM; with MDA-MB-231, 11.6 µM; in the series with MDA-MB-435 it was 16.3 µM; in the series on HUVECS, 25 µM; in series [7], 14.8 µM.
